# From patent publication US4837221A, “Methods of treating tumors susceptible to necrosis” (Efamol Ltd., priority 1984, dated 1989)
# Where “and” joins values, the source holds several entries; their conditions need not be identical. Equal entries are not always repeated. Entries after “also recorded” stand apart in the source; their conditions may differ.
# How the values were obtained:
# [1] = tested on: transplantable mouse tumour originating in plasma cells; assay: Depth of tumour necrosis after photosensitising drug and illumination (10J/cm^2) in mice; assay type: in vivo; conditions: for Necrosis (after 10J/cm^2), depth: ± S.E.M.
# Solubility = assay type: physicochemical
# cranium (brain) of mice = assay: Cerebral photosensitisation: deaths within 48 hours after white light to the cranium; assay type: in vivo, mouse; conditions: 0.033 μM/kg i.v., 24 hours later 20J/cm^2 white light to cranium
# Experimental: Deaths within 48 hours (due to acute cerebral oedema) were: […]
# [2] = tested on: transplantable mouse tumour originating in plasma cells; assay: Depth of tumour necrosis after photosensitising drug and illumination (10J/cm^2) in mice; assay type: in vivo; conditions: for Depths of tumour necrosis: 10J/cm^2 at 660nm, individual values; for effectiveness in DMSO versus alkali (in words): DMSO compared with alkali (NaOH); for effectiveness as photosensitiser for tumour tissue (in words): mouse assay
# Experimental: The photosensitising drug is given intravenously in aqueous medium or intraperitoneally in DMSO, the tumour exposed to light at the appropriate wavelength and the depth of tumour necrosis measured. […] Results are shown in graph. The relative potency is determined by comparing amounts of drugs required to produce equal effects.
# A preliminary comparison was made. […] The light dose was 10J/cm^2 at 660nm.
# depilated skin = assay: Skin photosensitisation: increase in skin thickness after illumination; assay type: in vivo, mouse
# Experimental: The increase in skin thickness was measured 4 hours after illumination.
# brain vascular lining = assay: Cerebral photosensitisation: Evans blue in the brain after white light to the cranium; assay type: in vivo, mouse; conditions: 0.033 μM/kg i.v., 20J/cm^2 white light; dye 4 hours after exposure, measured 1 hour later; groups of 5 mice
# Experimental: Normally, very little is found, and this is largely dye still circulating in the blood 1 hour after injection, and not in the brain substance itself. An increase is produced by agents that damage the brain vascular lining, allowing dye to enter the brain substance.
smiles,measurement,setting,value
"Oc1ccc(-c2c3nc(c(-c4ccc(O)cc4)c4ccc([nH]4)c(-c4ccc(O)cc4)c4nc(c(-c5ccc(O)cc5)c5ccc2[nH]5)C=C4)C=C3)cc1 [HK7, 5,10,15,20-tetra (4-hydroxyphenyl) porphyrin]","Necrosis (after 10J/cm^2), depth","[1]; 6.25 μM/kg, DMSO, 656 nm",1.17 ± 0.31 mm and 0.85 ± 0.38 mm
same,"Necrosis (after 10J/cm^2), depth","[1]; 12.5 μM/kg, DMSO, 656 nm",2.86 ± 0.26 mm and 2.50 ± 0.52 mm
same,"Necrosis (after 10J/cm^2), depth","[1]; 12.5 μM/kg, NaOH, 654 nm",2.40 ± 0.10 mm
same,"Necrosis (after 10J/cm^2), depth","[1]; 25 μM/kg, DMSO, 656 nm",3.54 ± 0.48 mm and 2.63 ± 0.56 mm
same,"Necrosis (after 10J/cm^2), depth","[1]; 25 μM/kg, NaOH, 654 nm",3.64 ± 0.39 mm
same,"Necrosis (after 10J/cm^2), depth","[1]; 25 μM/kg, NaOH, 669 nm",2.75 ± 0.25 mm and 2.38 ± 0.24 mm
same,"Necrosis (after 10J/cm^2), depth","[1]; 50 μM/kg, DMSO, 656 nm",5.06 ± 0.48 mm
same,"Necrosis (after 10J/cm^2), depth","[1]; 50 μM/kg, NaOH, 669 nm",3.32 ± 0.63 mm and 3.25 ± 0.37 mm
same,effectiveness in tumour necrosis (in words),[1]; 6.25 μm/kg,reasonably effective
same,tumour sensitisation at the dose of the cerebral test (in words),"[1]; 24 hours after dose, see graph",substantial tumour sensitisation
same,amount of drug required to produce equal effect (HK7 vs HpD),"[1]; i.v., 10J/cm^2, 630nm HpD, 658nm HK7",~0.0125 µM/kg
same,solubility in neutral aqueous media,Solubility,relatively insoluble in neutral aqueous media
same,Deaths within 48 hours (due to acute cerebral oedema),cranium (brain) of mice,0/5
same,Depths of tumour necrosis,"[2]; 33 μM/kg, NaOH-DMSO",0.5 mm and 1.5 mm and 4.5 mm
same,Depths of tumour necrosis,"[2]; 67 μM/kg, DMSO",4 mm and 5 mm and 6 mm
same,effectiveness in DMSO versus alkali (in words),[2],rather more effective administered in DMSO than in alkali
same,effectiveness as photosensitiser for tumour tissue (in words),[2],more effective photosensitiser for tumour tissue in animal assay than is HpD
same,"skin photosensitisation, by 1 week","depilated skin; 1 week, equimolar doses, 10J/cm^2, HK7 vs HpD",little difference
same,"skin photosensitisation, by 2 weeks","depilated skin; 2 weeks, maximum dose, 10J/cm^2",no longer sensitises to this dose of light
same,"skin photosensitisation, 1 day after porphyrin injection","depilated skin; 1 day, equimolar doses, 10J/cm^2 (625nm HpD, 656nm HK7)",more potent skin sensitiser than HpD
same,"skin photosensitisation, potency and persistence","depilated skin; HK7 compared with HpD, overall","less persistant than that caused by HpD; also recorded: more potent skin photosensitiser than HpD, but that the effect is more transient"
same,amount of Evans blue in the brain,brain vascular lining,23.6 ± 3.65 μg dye/brain
Oc1ccc(-c2c3nc(c(-c4ccc(O)cc4)c4ccc([nH]4)c(-c4ccc(O)cc4)c4nc(c(-c5ccc(O)cc5)c5ccc2[nH]5)C=C4)C=C3)cc1 [HK7.4EtOH],Depths of tumour necrosis,"[2]; 33 μM/kg, NaOH-DMSO",0.25 mm and 0.5 mm and 0.75 mm and 2 mm
same,Depths of tumour necrosis,"[2]; 67 μM/kg, DMSO",3.75 mm and 4 mm (2×) and 5 mm
Oc1ccc(-c2c3nc(c(-c4ccc(O)cc4)c4ccc([nH]4)c(-c4ccc(O)cc4)c4nc(c(-c5ccc(O)cc5)c5ccc2[nH]5)C=C4)C=C3)cc1 [K-HK7],"Necrosis (after 10J/cm^2), depth","[1]; 12.5 μM/kg, DMSO, 656 nm",2.50 ± 0.44 mm
same,"Necrosis (after 10J/cm^2), depth","[1]; 25 μM/kg, DMSO, 656 nm",3.32 ± 0.59 mm
same,"Necrosis (after 10J/cm^2), depth","[1]; 50 μM/kg, NaOH, 654 nm",5.06 ± 0.12 mm
Oc1ccc(-c2c3nc(c(-c4ccc(O)cc4)c4ccc([nH]4)c(-c4ccc(O)cc4)c4nc(c(-c5ccc(O)cc5)c5ccc2[nH]5)C=C4)C=C3)cc1 [Li-HK7],"Necrosis (after 10J/cm^2), depth","[1]; 25 μM/kg, DMSO, 656 nm",3.31 ± 0.40 mm and 3.00 ± 0.72 mm and 3.00 ± 0.51 mm
same,"Necrosis (after 10J/cm^2), depth","[1]; 50 μM/kg, DMSO, 656 nm",2.46 ± 0.38 mm and 3.50 ± 0.41 mm
same,necrosis depth,[1]; 12.5 μm/kg,below 1.0 mm
Oc1ccc(-c2c3nc(c(-c4ccc(O)cc4)c4ccc([nH]4)c(-c4ccc(O)cc4)c4nc(c(-c5ccc(O)cc5)c5ccc2[nH]5)C=C4)C=C3)cc1 [Na-HK7],"Necrosis (after 10J/cm^2), depth","[1]; 25 μM/kg, DMSO, 656 nm",2.28 ± 0.47 mm
same,"Necrosis (after 10J/cm^2), depth","[1]; 50 μM/kg, DMSO, 656 nm",2.80 ± 0.12 mm and 3.79 ± 0.29 mm
same,"Necrosis (after 10J/cm^2), depth","[1]; 50 μM/kg, NaOH, 664 nm",3.15 ± 0.83 mm
same,necrosis depth,[1]; 12.5 μm/kg,below 1.0 mm
Oc1cccc(-c2c3nc(c(-c4cccc(O)c4)c4ccc([nH]4)c(-c4cccc(O)c4)c4nc(c(-c5cccc(O)c5)c5ccc2[nH]5)C=C4)C=C3)c1 [meta-HK7],"Necrosis (after 10J/cm^2), depth","[1]; 1.56 μM/kg, DMSO, 648 nm",0.65 ± 0.22 mm
same,"Necrosis (after 10J/cm^2), depth","[1]; 6.25 μM/kg, DMSO, 648 nm",3.53 ± 0.49 mm and 2.88 ± 0.9 mm and 3.86 ± 0.18 mm
same,"Necrosis (after 10J/cm^2), depth","[1]; 6.25 μM/kg, NaOH, 648 nm",3.78 ± 0.36 mm and 3.64 ± 0.34 mm
same,"Necrosis (after 10J/cm^2), depth","[1]; 12.5 μM/kg, DMSO, 648 nm",4.44 ± 0.35 mm and 4.5 ± 0.5 mm
same,"Necrosis (after 10J/cm^2), depth","[1]; 12.5 μM/kg, NaOH, 648 nm",3.25 ± 0.33 mm
same,"Necrosis (after 10J/cm^2), depth","[1]; 25.0 μM/kg, DMSO, 648 nm",5.37 ± 0.55 mm
same,"Necrosis (after 10J/cm^2), depth","[1]; 50.0 μM/kg, DMSO, 648 nm",4.63 ± 0.64 mm
same,effectiveness in tumour necrosis (in words),[1]; 1.56 μm/kg,some effect
same,effectiveness in tumour necrosis (in words),[1]; 3.12 μm/kg,effective
same,effectiveness in DMSO versus alkali (in words),[2],equally effective in both
same,effectiveness as photosensitiser for tumour tissue (in words),[2],most active compound found
"Oc1ccccc1-c1c2nc(c(-c3ccccc3O)c3ccc([nH]3)c(-c3ccccc3O)c3nc(c(-c4ccccc4O)c4ccc1[nH]4)C=C3)C=C2 [ortho-HK7, 5,10,15,20-TETRA(o-HYDROXYPHENYL) PORPHYRIN]","Necrosis (after 10J/cm^2), depth","[1]; 6.25 μM/kg, DMSO, 648 nm",2.45 ± 0.28 mm
same,"Necrosis (after 10J/cm^2), depth","[1]; 12.5 μM/kg, DMSO, 648 nm",3.03 ± 0.29 mm
same,"Necrosis (after 10J/cm^2), depth","[1]; 25.0 μM/kg, DMSO, 648 nm",4.21 ± 0.32 mm and 3.21 ± 0.56 mm
same,"Necrosis (after 10J/cm^2), depth","[1]; 50.0 μM/kg, DMSO, 648 nm",4.25 ± 0.50 mm
"O=S(=O)(O)c1ccc(-c2c3nc(c(-c4ccc(S(=O)(=O)O)cc4)c4ccc([nH]4)c(-c4ccc(S(=O)(=O)O)cc4)c4nc(c(-c5ccc(S(=O)(=O)O)cc5)c5ccc2[nH]5)C=C4)C=C3)cc1 [tetra-(p-hydroxysulphonyl phenyl) porphyrin, reference compound]",necrosis depth,"[1]; molar equivalent dose to HpD 67 μmol/kg, saline, 550 nm",0.30±0.11 mm
